US12630546B2, “RNF4 targeting compounds and uses thereof” (TECHNION RESEARCH & DEVELOPMENT FOUNDATION LIMITED, priority 2021, dated 2026)
Entries after “also recorded” stand apart in the source; their conditions may differ.

Tests used:
human U2OS sarcoma cells = assay: Colony formation of osteosarcoma cells; type: cell-based; details: added at cell seeding, colonies visualized 9 d after seeding
[1] = system: mouse melanoma B16F10 cancer cells; assay: Cell viability (MTT) of B16F10 melanoma cells; type: cell-based; details: three days treatment
Procedure: (§1) Cell viability was assessed using MTT (Sigma-Aldrich) and ATP-lite (Perkin Elmer) assays according to the manufacture instructions. In assays evaluating resistance to PLX4032, PLX4032-treated cells were cultured for six days before analysis. Viability was measured using cells were performed in 96-well plates and cells incubated for 24 h at 37° C. Next, cells were incubated in MTT solution (Sigma-Aldrich) and processed according to the manufacturer instructions and analyzed using Stat Fax 2100 ELISA reader.

human A375R melanoma = assay: Colony formation of PLX-resistant melanoma cells; type: cell-based; details: added at cell seeding, colonies visualized 8 d after seeding
human Myeloma U266 cells = assay: Cell viability (MTT) of multiple myeloma cells; type: cell-based; details: concentrations similar to A375R
Procedure: as §1

[2] = system: B16F10 murine melanoma cells; assay: Colony formation of B16F10 melanoma cells; type: cell-based, mouse; details: nine days
[3] = system: human squamous skin cancer cells (SCC1); assay: Colony formation of squamous cell carcinoma cells; type: cell-based
Procedure: Colony formation assay: Cells were suspended in DMEM or RPMI medium and seeded at a density of 1000 cells/well. Plates were maintained at 37° C. for six days, fixed overnight with 4% paraformaldehyde (PFA), stained with 0.05% crystal violet.

A375R melanoma cells [4] = assay: Cell death by FACS analysis (sub-G1); type: cell-based, human; details: 3 h exposure, 20 uM
[5] = system: U2OS human osteosarcoma cells; assay: Cell viability (MTT) of osteosarcoma cells; type: cell-based; details: concentrations similar to A375R
Procedure: as §1

RNF4 = target: T1, RNF4 (Homo sapiens, UniProt P78317); assay: RNF4 protein level by western blot after R4VP treatment; type: cell-based; set-up: RNF4 degradation in the presence of proteasome inhibitor MG132: dose or concentration left out as unconfirmed
T1 construct: endogenous in cells; host or cells: A375 / A375R human melanoma cells
T1 sequence (P78317 1-190): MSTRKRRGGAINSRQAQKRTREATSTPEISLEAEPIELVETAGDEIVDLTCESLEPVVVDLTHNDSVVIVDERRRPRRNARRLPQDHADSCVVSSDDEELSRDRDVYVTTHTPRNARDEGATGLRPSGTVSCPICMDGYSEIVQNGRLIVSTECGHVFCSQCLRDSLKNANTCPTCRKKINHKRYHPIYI
Procedure: Protein stability was determined in steady state and dynamic CHX chase experiments as described (Trausch-Azar et al. 2015). Proteins resolved over SDS-PAGE, using the indicated antibodies, and visualized using chemiluminescence (Image-Quan LAS4000). Where indicated cells were treated for the indicated times and concentrations with R4VP or related compounds.

A375R melanoma cells [6] = assay: Cell viability (MTT) of Vemurafenib-resistant melanoma cells; type: cell-based, human; details: six days, in presence of PLX4032
Procedure: as §1

IC50 ([3]; Homo sapiens, squamous cell carcinoma cell line, printed HCC1): < 1 µM
SMILES: Cc1ncsc1-c1ccc(CNC(=O)[C@H]2C[C@@H](O)CN2C(=O)[C@H](NC(=O)CCC(=O)NCCCCOc2ccc(Oc3ccc(N(Cc4ccccc4)C(=O)CCl)cc3)cc2)C(C)(C)C)cc1 [R4VP, N1-(4-(4-(4-(N-benzyl-2-chloroacetamido)phenoxy)phenoxy)butyl)-N4-((R)-1-((2R,4R)-4-hydroxy-2-((4-(4-methylthiazol-5-yl)benzyl)carbamoyl)pyrrolidin-1-yl)-3,3-dimethyl-1-oxobutan-2-yl)succinamide]
effect on colony formation of U2OS cells (human U2OS sarcoma cells): inhibited colony formation of melanoma and osteosarcoma cells in a dose dependent manner; also recorded: inhibits colony formation of human U2OS sarcoma cells | effect on proliferation/viability of B16F10 cells [1]: inhibits proliferation and colony formation | effect on proliferation/viability of B16F10 cells ([1]; listed as RNF4-VHL-PROTAC): inhibits cell proliferation and colony formation | effect on colony formation of A375R cells (human A375R melanoma): inhibited colony formation of melanoma and osteosarcoma cells in a dose dependent manner; also recorded: inhibits colony formation of human A375R melanoma | effect on proliferation of U266 cells (human Myeloma U266 cells): growth inhibitory effects were also observed; also recorded: inhibits proliferation of human Myeloma U266cells | effect on colony formation of B16F10 cells [2]: inhibits proliferation and colony formation | effect on colony formation of B16F10 cells ([2]; listed as RNF4-VHL-PROTAC): inhibits cell proliferation and colony formation | effect on colony formation of SCC1 cells ([3]; 1, 3 and 5 μM): inhibiting colony formation | cell death, accumulation of cells in sub-G1 (A375R melanoma cells [4]): extensive cell death | cell death, accumulation of cells in sub-G1 (A375R melanoma cells [4]; listed as RNF4-VHL-PROTAC): results in cell-death | effect on proliferation of U2OS cells [5]: growth inhibitory effects were also observed; also recorded: inhibits proliferation of U2OS human osteosarcoma cells in a dose dependent manner | RNF4 degradation in the presence of proteasome inhibitor MG132 (RNF4; A375R cells, MG132 as printed): can be inhibited by the proteasome inhibitor MG132; also recorded: restored to levels similar to control treated cells | RNF4 protein level (exogenous HA-RNF4 or endogenous) (RNF4; A375R cells, three hours treatment, western blot): reduced the level of exogenous or endogenous RNF4 protein; also recorded: induced degradation of RNF4 | endogenous RNF4 level, dose dependence (RNF4; A375 melanoma cells): reduces the level of endogenous RNF4 in A375 melanoma cells in a dose dependent manner | concentration inhibiting growth and proliferation (A375R melanoma cells [6]; A375R): ≥ 10 µM | effect on growth and proliferation of A375R cells (A375R melanoma cells [6]): inhibits A375R proliferation
